From PubChem BioAssay AID489022 (Sanford-Burnham Center for Chemical Genomics, 2010)
Calls of active or inactive are those of the source. No rule for the calls is given here.

These compounds were tested on HEK-293T NF-kB luciferase reporter, luminescence counterscreen (assay: NF-kB reporter suppression in HEK-293T cells – luminescence, B-cell screen hits, counter-screen for BCR NF-kB inhibitor project, dose response (AID 489022)).

SMILES | IC50
CC(C)(C)c1ccc(-c2noc(CCC(N)=O)n2)cc1 | 0.27 µM
CC(C)N1C(=O)S/C(=C/c2ccc3c(c2)n(C)c(=O)n3C)C1=O | > 80 µM (inactive)
Cc1ccc(/C=C2\SC(=S)N(CCCC(=O)NC3CCCC3)C2=O)cc1 | > 80 µM (inactive)
COC(=O)c1cc(NC(=O)Nc2cc(OC)ccc2OC)cc(C(=O)OC)c1 | > 80 µM (inactive)
Cn1cnc([N+](=O)[O-])c1Sc1ccc([N+](=O)[O-])cc1 | > 80 µM (inactive)
O=C(CCCN1C(=O)/C(=C/c2ccccc2Cl)SC1=S)NNC(=O)c1ccncc1 | 12.7 µM
Cc1cc(-c2cc(C(=O)NCc3ccccc3)on2)nc(S(C)(=O)=O)n1 | 15.6 µM
Cc1ccc(-n2c(-c3ccccc3)c[n+]3c2CCc2ccccc2-3)c(C)c1 | 2.15 µM
CCCCCOc1ccc(NC(=O)C(=O)NCCCn2ccnc2)cc1 | 42.8 µM (inactive)
CC1CC(C)(C)Nc2ccc(OC(=O)c3ccco3)cc21 (centres undefined) | 8.89 µM
Cc1ccc(-c2nn3c(C)nnc3c3ccccc23)cc1S(=O)(=O)NC(C)(C)CO | 27.6 µM (inactive)
O=C1NC[C@H](c2ccccc2)OC(=O)[C@@H](Cc2ccc(F)cc2)C/C=C\C[C@H]1CC(=O)N(CCO)Cc1ccccc1 | 16.9 µM
Cc1ccc(C(=O)OCC(=O)N(CC(C)C)c2c(N)n(Cc3ccccc3)c(=O)[nH]c2=O)o1 | > 80 µM (inactive)
Cc1nc2cc(-c3cccc(F)c3)nn2c(C)c1CCC(=O)N1CCC2(CC1)OCCO2 | 34 µM (inactive)
Cc1cc(C)cc(NC(=O)Nc2ccc(NC(=O)c3ccccc3O)cc2)c1 | > 80 µM (inactive)
CCOc1ccc(-n2c(-c3ccccc3)c[n+]3c2CCCCC3)cc1 | 1.4 µM
COc1ccc(/C=C2/SC(=S)N(CCC(=O)O)C2=O)cc1 | 24.3 µM (inactive)
CCC(C)(C)c1ccc(OCCCC[n+]2ccccc2)c(C(C)(C)CC)c1 | 8.65 µM
COc1ccc(N(CC(=O)N2CCN(c3ccc(Cl)cc3)CC2)S(=O)(=O)c2c(C)n[nH]c2C)cc1 | 15.3 µM
Cc1ccc(Nc2nc(N3CCOCC3)nc(N3CCOCC3)n2)cc1C | 51.4 µM (inactive)

SMILES | IC50
COc1ccccc1/C=C1\SC(=S)N(CCC(=O)NC2=NCCS2)C1=O | > 80 µM (inactive)
Cn1c(=O)n(C)c2cc(NS(=O)(=O)c3ccccc3)ccc21 | 59.3 µM (inactive)
CCOC(=O)Cc1csc(NC(=S)NC(=O)c2ccc(C)cc2)n1 | > 80 µM (inactive)
CCC(=O)N1c2ccccc2C(N(C(C)=O)c2ccccc2)CC1C (centres undefined) | > 80 µM (inactive)
CCc1ccc(/C=C2\SC(=S)N(CCC(=O)NC3=NCCS3)C2=O)cc1 | > 80 µM (inactive)
Cc1ccccc1-c1cc(C(=O)Nc2sc(C(=O)OC(C)C)c(C)c2C#N)c2ccccc2n1 | 0.35 µM
CCOC(=O)Cc1csc(NC(=S)NC(=O)c2ccc(Cl)cc2)n1 | > 80 µM (inactive)
Cc1cc(=O)[nH]c2c(C)cc(S(=O)(=O)N3CCCCC3)cc12 | > 80 µM (inactive)
Cn1c(=O)cc(OCCCC(=O)NC2CCCC2)c2ccccc21 | 46 µM (inactive)
Cc1noc(C)c1CSc1nc2[nH]ncc2c(=O)n1-c1ccccc1 | 7.74 µM
Cc1ccc(/C=C2\SC(=S)N(CCCC(=O)Nc3cccnc3)C2=O)cc1 | 51.8 µM (inactive)
CC(C)c1ccc(/C=C2\SC(=S)N(CCC(=O)NCCCn3ccnc3)C2=O)cc1 | 50.2 µM (inactive)
CCOc1ccc(-c2cc(CCCC(=O)NCc3ccc(C)cc3)no2)cc1 | 70.9 µM (inactive)
CCCN1C(=O)/C(=C/c2c(N3CCNC(=O)C3CC(=O)OCC)nc3c(C)cccn3c2=O)SC1=S (centres undefined) | 14.5 µM
Cc1ccc(-c2cn(-c3ccccc3)c3[n+]2CCCS3)cc1 | 4.88 µM
O=C(CCCN1C(=O)S/C(=C\C=C\c2ccccc2)C1=O)Nc1ccc(O)cc1 | > 80 µM (inactive)
CCn1c(CN2CCN(c3ccc(Cl)cc3)CC2)nc2ccccc21 | 9.25 µM
COCCCn1c(=O)/c(=C\c2cccc(OC)c2OC)s/c1=C(/C#N)C(=O)Nc1ccc(C(=O)O)cc1 | 34.1 µM (inactive)
Cn1c(=O)n(C)c2cc(C(=O)Nc3ccc4c(c3)OCO4)ccc21 | > 80 µM (inactive)
